Results: patent US10077261B2, “Imidazolin-5-one derivative useful as FASN inhibitors for the treatment of cancer” (Janssen Pharmaceutica NV, priority 2012, dated 2018)

Biological target: T1, hFASN enzyme (full length) (Homo sapiens, UniProt P49327)
T1 construct: 10 μL hFASN enzyme (full length, 300 ng, purified in house); made in house
Experiment: Fatty Acid Synthase (FASN) inhibition scintillation proximity assay
Format: biochemical
Settings: for inhibition at 10 µM: read-out: Human FASN % inhibition @ 10 μM, 10 μM test compound; for IC50: read-out: Human FASN pIC50 (converted)
In short: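 Compounds at 0.01–30 μM were mixed with 300 ng purified full-length enzyme in 100 mM KH2PO4 pH 7.5, 1 mM DTT. Substrates ³H-acetyl-CoA and malonyl-CoA were then converted, and bead addition stopped the reaction. Signal was normalised to low and high plate controls and fitted by 4-parameter nonlinear regression.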

T1 sequence (P49327 whole entry): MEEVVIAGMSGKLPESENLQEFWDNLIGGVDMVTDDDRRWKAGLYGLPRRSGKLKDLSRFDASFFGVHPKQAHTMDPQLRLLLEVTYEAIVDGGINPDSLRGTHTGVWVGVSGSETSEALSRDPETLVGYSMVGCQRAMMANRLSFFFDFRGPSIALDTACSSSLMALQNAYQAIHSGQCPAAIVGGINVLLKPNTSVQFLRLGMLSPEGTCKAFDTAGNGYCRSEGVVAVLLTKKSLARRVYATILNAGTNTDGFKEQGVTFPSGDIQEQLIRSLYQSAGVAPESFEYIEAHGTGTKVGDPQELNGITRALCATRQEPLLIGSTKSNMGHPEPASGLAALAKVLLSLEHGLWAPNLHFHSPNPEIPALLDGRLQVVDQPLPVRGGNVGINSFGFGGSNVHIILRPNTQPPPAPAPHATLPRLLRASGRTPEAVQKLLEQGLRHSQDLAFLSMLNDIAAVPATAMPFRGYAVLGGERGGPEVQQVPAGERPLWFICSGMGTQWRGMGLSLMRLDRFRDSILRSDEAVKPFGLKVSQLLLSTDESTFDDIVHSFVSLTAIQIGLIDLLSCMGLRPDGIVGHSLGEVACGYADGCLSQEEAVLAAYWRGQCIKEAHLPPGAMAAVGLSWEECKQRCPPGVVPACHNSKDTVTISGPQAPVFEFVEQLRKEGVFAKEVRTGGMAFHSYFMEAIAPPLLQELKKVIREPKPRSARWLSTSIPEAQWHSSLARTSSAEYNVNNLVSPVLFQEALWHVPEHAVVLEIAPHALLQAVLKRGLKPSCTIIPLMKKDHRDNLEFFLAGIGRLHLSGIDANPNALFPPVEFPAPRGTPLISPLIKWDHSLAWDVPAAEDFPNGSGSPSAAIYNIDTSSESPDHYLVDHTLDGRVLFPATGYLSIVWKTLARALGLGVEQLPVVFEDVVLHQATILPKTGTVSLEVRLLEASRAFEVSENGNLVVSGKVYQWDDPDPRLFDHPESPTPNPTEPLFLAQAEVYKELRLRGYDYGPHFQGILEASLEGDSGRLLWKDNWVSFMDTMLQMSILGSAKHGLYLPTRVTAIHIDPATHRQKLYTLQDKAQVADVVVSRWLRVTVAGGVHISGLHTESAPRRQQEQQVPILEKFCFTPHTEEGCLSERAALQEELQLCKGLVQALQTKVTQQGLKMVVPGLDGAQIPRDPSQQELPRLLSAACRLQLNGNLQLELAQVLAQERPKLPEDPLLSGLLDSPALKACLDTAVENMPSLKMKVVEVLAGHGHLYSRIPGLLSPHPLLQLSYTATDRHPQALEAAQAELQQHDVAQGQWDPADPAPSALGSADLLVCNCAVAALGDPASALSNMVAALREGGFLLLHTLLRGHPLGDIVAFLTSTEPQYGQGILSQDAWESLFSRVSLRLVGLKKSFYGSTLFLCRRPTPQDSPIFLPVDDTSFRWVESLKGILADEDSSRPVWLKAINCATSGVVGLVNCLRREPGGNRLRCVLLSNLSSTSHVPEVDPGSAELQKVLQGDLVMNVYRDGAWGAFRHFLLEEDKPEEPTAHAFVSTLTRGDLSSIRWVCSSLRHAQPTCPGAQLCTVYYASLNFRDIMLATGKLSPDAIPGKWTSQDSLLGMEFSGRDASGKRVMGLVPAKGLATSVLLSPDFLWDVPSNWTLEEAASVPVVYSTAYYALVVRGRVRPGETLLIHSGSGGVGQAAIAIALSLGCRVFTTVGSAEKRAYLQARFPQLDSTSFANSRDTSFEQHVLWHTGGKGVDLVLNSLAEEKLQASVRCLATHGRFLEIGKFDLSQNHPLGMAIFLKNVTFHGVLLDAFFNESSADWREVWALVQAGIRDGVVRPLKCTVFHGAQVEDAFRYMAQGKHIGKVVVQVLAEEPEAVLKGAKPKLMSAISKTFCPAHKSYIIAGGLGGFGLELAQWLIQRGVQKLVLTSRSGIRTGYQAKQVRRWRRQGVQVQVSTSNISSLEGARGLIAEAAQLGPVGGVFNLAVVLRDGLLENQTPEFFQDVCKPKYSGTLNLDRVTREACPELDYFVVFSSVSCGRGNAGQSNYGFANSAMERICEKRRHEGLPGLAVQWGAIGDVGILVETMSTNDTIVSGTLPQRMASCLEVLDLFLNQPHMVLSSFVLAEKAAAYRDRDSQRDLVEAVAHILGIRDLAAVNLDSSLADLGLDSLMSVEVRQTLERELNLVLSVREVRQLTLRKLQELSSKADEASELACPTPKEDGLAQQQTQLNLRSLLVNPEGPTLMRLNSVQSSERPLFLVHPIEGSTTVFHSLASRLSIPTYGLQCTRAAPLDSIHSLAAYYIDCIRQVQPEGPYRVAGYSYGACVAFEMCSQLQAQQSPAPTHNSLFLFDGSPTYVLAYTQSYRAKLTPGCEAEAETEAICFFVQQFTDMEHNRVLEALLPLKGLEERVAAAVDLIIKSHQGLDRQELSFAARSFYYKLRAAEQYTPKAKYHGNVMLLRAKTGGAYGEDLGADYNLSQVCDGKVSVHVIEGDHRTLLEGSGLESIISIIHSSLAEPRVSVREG

| Structure (SMILES) | inhibition at 10 µM [%] | IC50 [nM] |
| --- | --- | --- |
| COC(=O)N1CC[C@@H](CN2C(=O)C3(CCOCC3)N=C2c2ccc(-c3ccc4c(cnn4C)c3)cc2)C1 [compound 953, (S)-methyl 3-((2-(4-(1-methyl-1H-indazol-5-yl)phenyl)-4-oxo-8-oxa-1,3-diazaspiro[4.5]dec-1-en-3-yl)methyl)pyrrolidine-1-carboxylate] | 35 | > 10000 |
| Cn1ncc2cc(-c3ccc(C4=NC5(CCOCC5)C(=O)N4C[C@@H]4CCN(S(C)(=O)=O)C4)cc3)ccc21 [compound 926, (S)-2-(4-(1-methyl-1H-indazol-5-yl)phenyl)-3-((1-(methylsulfonyl)pyrrolidin-3-yl)methyl)-8-oxa-1,3-diazaspiro[4.5]dec-1-en-4-one] | -8 | > 10000 |
| Cn1cc(-c2ccc(-c3ccc(C4=NC5(CCOC5)C(=O)N4CC4CN(S(C)(=O)=O)C4)cc3)cc2)cn1 (stereo not shown) [compound 950, 2-(4′-(1-methyl-1H-pyrazol-4-yl)-[1,1′-biphenyl]-4-yl)-3-((1-(methylsulfonyl)azetidin-3-yl)methyl)-7-oxa-1,3-diazaspiro[4.4]non-1-en-4-one] | -1.27 | > 10000 |
| CC(O)C(=O)N1CC[C@@H](CN2C(=O)C3(CCOCC3)N=C2c2ccc(-c3ccc4occc4c3)cc2)C1 (stereo partly drawn) [compound 668, 2-[4-(1-Benzofuran-5-yl)phenyl]-3-{[(3R)-1-(2-hydroxypropanoyl)pyrrolidin-3-yl]methyl}-8-oxa-1,3-diazaspiro[4.5]dec-1-en-4-one] | 86 | 1170 |
| Cn1nccc1-c1ccc(-c2ccc(C3=NC4(CC4)C(=O)N3CC3CCN(C(=O)C4CC4)CC3)cc2)cc1 [compound 62, 6-{[1-(Cyclopropylcarbonyl)piperidin-4-yl]methyl}-5-[4′-(1-methyl-1H-pyrazol-5-yl)biphenyl-4-yl]-4,6-diazaspiro[2.4]hept-4-en-7-one] | 29.3 | > 10000 |
| Cn1cc(-c2ccc(-c3ccc(C4=NC5(CCOCC5)C(=O)N4CC4CN(C(=O)c5nccs5)C4)cc3)cc2)cn1 [compound 911, 2-(4′-(1-methyl-1H-pyrazol-4-yl)-[1,1′-biphenyl]-4-yl)-3-((1-(thiazole-2-carbonyl)azetidin-3-yl)methyl)-8-oxa-1,3-diazaspiro[4.5]dec-1-en-4-one] | 7 | > 10000 |
| Cn1ncc2cc(-c3ccc(C4=NC5(CCOC5)C(=O)N4C[C@@H]4CCN(C(=O)c5nccs5)C4)cc3)ccc21 (stereo partly drawn) [compound 892, 2-(4-(1-methyl-1H-indazol-5-yl)phenyl)-3-(((R)-1-(thiazole-2-carbonyl)pyrrolidin-3-yl)methyl)-7-oxa-1,3-diazxaspiro[4.4]non-1-en-4-one] | -29 | > 10000 |
| O=C(C1CC1)N1CC[C@@H](CN2C(=O)C3(CCN(CCO)CC3)N=C2c2ccc(-c3ccc4cnccc4c3)cc2)C1 [compound 159, 3-{[(3R)-1-(Cyclopropylcarbonyl)pyrrolidin-3-yl]methyl}-8-(2-hydroxyethyl)-2-(4-isoquinolin-6-ylphenyl)-1,3,8-triazaspiro[4.5]dec-1-en-4-one] | 116 | 79.4 |
| O=C(C1CC1)N1CC[C@@H](CN2C(=O)C3(CCCC3)N=C2c2ccc(-c3cccnc3)cc2)C1 [compound 5, 3-{[(3R)-1-(Cyclopropylcarbonyl)pyrrolidin-3-yl]methyl}-2-(4-pyridin-3-ylphenyl)-1,3-diazaspiro[4.4]non-1-en-4-one] | 74.6 | 2140 |
| CC(C)N1CCC2(CC1)N=C(c1ccc(-c3ccc4cnccc4c3)cc1)N(C[C@@H]1CCN(C(=O)C3CC3)C1)C2=O [compound 163] | 110 | 229 |
| Cc1ccc(-c2ccc(-c3ccc(C4=NC5(CC5)C(=O)N4C[C@@H]4CCCN(C(=O)C5CC5)C4)cc3)cc2)cc1 [compound 821, (R)-6-((1-(cyclopropanecarbonyl)piperidin-3-yl)methyl)-5-(4″-methyl-[1,1′:4′,1″- terphenyl]-4-yl)-4,6-diazaspiro[2.4]hept-4-en-7-one] | 7 | > 10000 |
| O=C(C1CC1)N1CCC(CN2C(=O)C3(CC3)N=C2c2ccc(-c3ccc(-c4ccncc4)cc3)cc2)CC1 [compound 61, 6-{[1-(Cyclopropylcarbonyl)piperidin-4-yl]methyl}-5-(4′-pyridin-4-ylbiphenyl-4-yl)-4,6-diazaspiro[2.4]hept-4-en-7-one] | 63.2 | 3980 |
| Cn1cc(-c2ccc(C3=NC4(CC4)C(=O)N3CC3CCN(C(=O)C4CC4)CC3)cc2)cn1 [compound 9, 6-{[1-(Cyclopropylcarbonyl)piperidin-4-yl]methyl}-5-[4-(1-methyl-1H-pyrazol-4-yl)phenyl]-4,6-diazaspiro[2.4]hept-4-en-7-one] | 11.4 | > 10000 |

Next, values leading:

| inhibition at 10 µM [%] | IC50 [nM] | Structure (SMILES) |
| --- | --- | --- |
| 108 | 102 | Cc1cc2cc(-c3ccc(C4=NC5(CC5)C(=O)N4CC4CN(C(=O)C5CC5)C4)cc3)ccc2o1 [compound 178, 6-{[1-(Cyclopropylcarbonyl)azetidin-3-yl]methyl}-5-[4-(2-methyl-1-benzofuran-5-yl)phenyl]-4,6-diazaspiro[2.4]hept-4-en-7-one] |
| 71.7 | 3240 | O=C(C1CC1)N1CC[C@@H](CN2C(=O)C3(CC3)N=C2c2ccc(-c3ccc(C(F)(F)F)cc3)cc2)C1 [compound 104, 6-{[(3R)-1-(Cyclopropylcarbonyl)pyrrolidin-3-yl]methyl}-5-[4′-(trifluoromethyl)biphenyl-4-yl]-4,6-diazaspiro[2.4]hept-4-en-7-one] |
|  | 26.9 | Cn1ccc2cc(-c3ccc(C4=NC5(CC5)C(=O)N4CC4CN(C(=O)C5CC5)C4)c(F)c3)ccc21 [compound 870, 6-((1-(cyclopropanecarbonyl)azetidin-3-yl)methyl)-5-(2-fluoro-4-(1-methy7l-1H-indol-5-yl)phenyl)-4,6-diazaspiro[2.4]hept-4-en-7-one] |
| 10 |  | Cn1ncc2cc(-c3ccc(C4=NC5(CC5)C(=O)N4C[C@H]4CCCN(C(=O)C5CC5)C4)cc3)ccc21 [compound 819, (S)-6-((1-(cyclopropanecarbonyl)piperidin-3-yl)methyl)-5-(4-(1-methyl-1H-indazol-5-yl)phenyl)-4,6-diazaspiro[2.4]hept-4-en-7-one] |
| 76 | ~1780 | Cc1cc2cc(-c3ccc(C4=NC5(CC5)C(=O)N4CC4CN(C(=O)C5CC5)C4)cc3F)ccc2o1 [compound 416, 6-{[1-(Cyclopropylcarbonyl)azetidin-3-yl]methyl}-5-[3-fluoro-4-(2-methyl-1-benzofuran-5-yl)phenyl]-4,6-diazaspiro[2.4]hept-4-en-7-one] |
| 62 | ~2880 | Cc1cc(C2=NC3(CC3)C(=O)N2CC2CN(C(=O)C3CC3)C2)ccc1-c1ccc2occc2c1 [compound 393, 5-[4-(1-Benzofuran-5-yl)-3-methylphenyl]-6-{[1-(cyclopropylcarbonyl)azetidin-3-yl]methyl}-4,6-diazaspiro[2.4]hept-4-en-7-one] |
| 101 | 138 | Cc1cc(C2=NC3(CC3)C(=O)N2C[C@@H]2CCN(C(=O)C3CC3)C2)ccc1-c1ccc2occc2c1 [compound 180, 5-[4-(1-Benzofuran-5-yl)-3-methylphenyl]-6-{[(3R)-1-(cyclopropylcarbonyl)pyrrolidin-3-yl]methyl}-4,6-diazaspiro[2.4]hept-4-en-7-one] |
| 80 | 1260 | O=C(C1CC1)N1CC(CN2C(=O)C3(CC3)N=C2c2ccc(-c3ccc4occc4c3)c(F)c2)C1 [compound 415] |
| 63 | 5130 | O=C(C1CC1)N1CC[C@H](CN2C(=O)C3(CC3)N=C2c2ccc(-c3ccc(O)cc3)cc2)C1 [compound 408, 6-{[(3S)-1-(Cyclopropylcarbonyl)pyrrolidin-3-yl]methyl}-5-(4′-hydroxybiphenyl-4-yl)-4,6-diazaspiro[2.4]hept-4-en-7-one] |
| 74 | ~2750 | Cn1c(=O)c2cc(-c3ccc(C4=NC5(CC5)C(=O)N4C[C@@H]4CCN(C(=O)C5CC5)C4)cc3)ccc2n1C [compound 500, 5-[4-(6-{[(3R)-1-(Cyclopropylcarbonyl)pyrrolidin-3-yl]methyl}-7-oxo-4,6-diazaspiro[2.4]hept-4-rn-5-yl)phenyl]-1,2-dimethyl-1,2-dihydro-3H-indazol-3-one] |
| 52.1 | 8910 | Cn1ncc2cc(-c3ccc(C4=NC5(CCNCC5)C(=O)N4CC4CN(C(=O)C5CC5)C4)cc3)ccc21 [compound 131, 3-{[1-(Cyclopropylcarbonyl)azetidin-3-yl]methyl}-2-[4-(1-methyl-1H-indazol-5-yl)phenyl]-1,3,8-triazaspiro[4.5]dec-1-en-4-one] |
| 70 | 3310 | O=C(C1CC1)N1CC[C@@H](CN2C(=O)C3(CC3)N=C2c2ccc(-c3ccc4occc4c3)s2)C1 [compound 422, 5-[5-(1-Benzofuran-5-yl)thiophen-2-yl]-6-{[(3R)-1-(cyclopropylcarbonyl)pyrrolidin-3-yl]methyl}-4,6-diazaspiro[2.4]hept-4-en-7-one] |
| 2 | > 10000 | O=C(C1CC1)N1CCC[C@H](CN2C(=O)C3(CC3)N=C2c2ccc(-c3ccc4occc4c3)cc2)C1 [compound 818, (S)-5-(4-(benzofuran-5-yl)phenyl)-6-((1-(cyclopropanecarbonyl)piperidin-3-yl)methyl)-4,6-diazaspiro[2.4]hept-4-en-7-one] |
| 78.6 | 1950 | Nc1cc(-c2ccc(C3=NC4(CC4)C(=O)N3CC3CN(C(=O)C4CC4)C3)cc2)ccc1O [compound 53, 5-(3′-Amino-4′-hydroxybiphenyl-4-yl)-6-{[1-(cyclopropylcarbonyl)azetidin-3-yl]methyl}-4,6-diazaspiro[2.4]hept-4-en-7-one] |
